pIC50: −log10 of the molar value.
Target: T1, trypsin-activated recombinant human renin (Homo sapiens, UniProt P00797)
T1 sequence (P00797 67-406): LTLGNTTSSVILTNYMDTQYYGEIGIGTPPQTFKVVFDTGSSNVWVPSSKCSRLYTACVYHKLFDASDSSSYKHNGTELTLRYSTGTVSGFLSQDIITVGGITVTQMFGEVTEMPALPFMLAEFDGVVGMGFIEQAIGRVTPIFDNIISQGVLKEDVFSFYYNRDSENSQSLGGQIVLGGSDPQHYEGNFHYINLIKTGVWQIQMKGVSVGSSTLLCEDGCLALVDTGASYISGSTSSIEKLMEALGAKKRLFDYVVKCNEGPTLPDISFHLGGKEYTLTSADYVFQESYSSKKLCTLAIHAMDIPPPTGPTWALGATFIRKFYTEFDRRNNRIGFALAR
Experiment: Renin fluorescence assay (internally quenched peptide substrate)
Assay type: biochemical
Conditions: compounds I*
Procedure, shortened: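 Cleavage of an angiotensinogen-derived DABCYL-quenched peptide by trypsin-activated recombinant human renin (0.2-2 nM final) in 50 mM BES, 150 mM NaCl, 0.25 mg/mL BSA, pH 7.0; compounds 10 μM to 1 nM final. Fluorescence (ex 340/em 495 nm) followed 60-360 min at rt; linear-slope rates give percent inhibition versus uninhibited control.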

Row | pIC50 | SMILES
1 | > 7.30 | CNC[C@H](CC1CCC(O)CC1)NC(=O)N1CCC[C@@H]([C@@H](OCCNC(=O)OC)c2cccc(Cl)c2)C1 (stereo partly drawn) [I*-102a, methyl 2-((R)-(3-chlorophenyl)((R)-1-((S)-1-(4-hydroxycyclohexyl)-3-(methylamino)propan-2-ylcarbamoyl)piperidin-3-yl)methoxy)ethylcarbamate]
2 | > 7.70 | CNC[C@H](CC1CCOCC1)NC(=O)N1CCC[C@@H]([C@@](C)(OCCNC(=O)OC)c2cccc(Cl)c2)C1 [I*-103a, methyl 2-((R)-1-(3-chlorophenyl)-1-((R)-1-((S)-1-(methylamino)-3-(tetrahydro-2H-pyran-4-yl)propan-2-ylcarbamoyl)piperidin-3-yl)ethoxy)ethylcarbamate]
3 | > 9.00 | CNC[C@H](C[C@H]1CCCCOC1)NC(=O)N1CCC[C@@H]([C@@H](OCCNC(=O)OC)c2cccc(Cl)c2)C1 [I*-106a, methyl 2-((R)-(3-chlorophenyl)((R)-1-((S)-1-(methylamino)-3-((R)-oxepan-3-yl)propan-2-ylcarbamoyl)piperidin-3-yl)methoxy)ethylcarbamate]
4 | > 8.00 | CNC[C@@H](NC(=O)N1CCC[C@@H]([C@@H](OCCNC(=O)OC)c2cc(Cl)ccc2C)C1)[C@@H](O)C1CCCC1 [I*-107a, methyl 2-((R)-(5-chloro-2-methylphenyl)((R)-1-((1S,2R)-1-cyclopentyl-1-hydroxy-3-(methylamino)propan-2-ylcarbamoyl)piperidin-3-yl)methoxy)ethylcarbamate]
5 | > 7.30 | CNC[C@H](CC1CCOCC1)NC(=O)N1CCCC[C@@H]([C@@H](OCCNC(=O)OC)c2cccc(Cl)c2)C1 [I*-108a, methyl 2-((R)-(3-chlorophenyl)((R)-1-((S)-1-(methylamino)-3-(tetrahydro-2H-pyran-4-yl)propan-2-ylcarbamoyl)azepan-3-yl)methoxy)ethylcarbamate]
6 | > 9.00 | COC(=O)NCCO[C@@H](c1cc(Cl)ccc1C)[C@@H]1CCCN(C(=O)NC[C@@H](N)C[C@H]2CCCCOC2)C1 [I*-109a, methyl 2-((R)-((R)-1-((S)-2-amino-3-((R)-oxepan-3-yl)propylcarbamoyl)piperidin-3-yl)(5-chloro-2-methylphenyl)methoxy)ethylcarbamate]
7 | > 9.00 | CN[C@H](CNC(=O)N1CCC[C@@H]([C@@H](OCCNC(=O)OC)c2cccc(Cl)c2)C1)C[C@H]1CCCCOC1 [I*-110a, methyl 2-((R)-(3-chlorophenyl)((R)-1-((S)-2-(methylamino)-3-((R)-oxepan-3-yl)propylcarbamoyl)piperidin-3-yl)methoxy)ethylcarbamate]
8 | > 9.00 | CNC[C@H](CC1CCCCC1)NC(=S)N1CCC[C@@H]([C@@H](OCCNC(=O)OC)c2cccc(Cl)c2)C1 [I*-111a, methyl 2-((R)-(3-chlorophenyl)((R)-1-((S)-1-cyclohexyl-3-(methylamino)propan-2-ylcarbamothioyl)piperidin-3-yl)methoxy)ethylcarbamate]
9 | > 9.00 | CNC[C@@H](NC(=O)N1CCC[C@@H]([C@@H](OCCNC(=O)OC)c2cc(F)cc(F)c2)C1)[C@@H](O)C1CCCCC1 [I*-112a, methyl 2-((R)-((R)-1-((1S,2R)-1-cyclohexyl-1-hydroxy-3-(methylamino)propan-2-ylcarbamoyl)piperidin-3-yl)(3,5-difluorophenyl)methoxy)ethylcarbamate]
10 | > 8.00 | CNC[C@H](C[C@H]1CCCCOC1)NC(=O)N1CCC[C@@H]([C@@H](OCCNC(=O)OC)c2cc(F)cc(F)c2)C1 [I*-113a, methyl 2-((R)-(3,5-difluorophenyl)((R)-1-((S)-1-(methylamino)-3-((R)-oxepan-3-yl)propan-2-ylcarbamoyl)piperidin-3-yl)methoxy)ethylcarbamate]
11 | > 8.00 | CNC[C@H](CC1CCCCC1)NC(=O)N1CCC[C@@H]([C@@H](OCCNC(=O)OC)c2cc(F)cc(F)c2O)C1 [I*-114a, methyl 2-((R)—((R)-1-((S)-1-cyclohexyl-3-(methylamino)propan-2-ylcarbamoyl)piperidin-3-yl)(3,5-difluoro-2-hydroxyphenyl)methoxy)ethylcarbamate]
12 | > 8.00 | CNC[C@H](CC1CCOCC1)NC(=O)N1CCCC([C@@H](OCCNC(=O)OC)c2c(C)ccc(F)c2F)C1 (stereo partly drawn) [I*-115a, methyl 2-((R)-(2,3-difluoro-6-methylphenyl)(1-((S)-1-(methylamino)-3-(tetrahydro-2H-pyran-4-yl)propan-2-ylcarbamoyl)piperidin-3-yl)methoxy)ethylcarbamate]
13 | > 8.00 | CNC[C@H](CC1CCCCC1)NC(=O)N1CCC[C@@H](C(OCCNC(=O)OC)c2cc(Cl)ccc2F)C1 (stereo partly drawn) [I*-116a, methyl 2-((5-chloro-2-fluorophenyl)((R)-1-((S)-1-cyclohexyl-3-(methylamino)propan-2-ylcarbamoyl)piperidin-3-yl)methoxy)ethylcarbamate]
14 | > 9.00 | CNC[C@H](CC1CCCCC1)NC(=O)N1CCC[C@@H]([C@@H](OCCNC(=O)OC)c2cc(Cl)ccc2F)C1 [I*-117a, methyl 2-((R)-(5-chloro-2-fluorophenyl)((R)-1-((S)-1-cyclohexyl-3-(methylamino)propan-2-ylcarbamoyl)piperidin-3-yl)methoxy)ethylcarbamate]
15 | > 9.00 | CNC[C@H](CC1CCCCC1)NC(=O)N1CCC[C@@H]([C@@H](OCCNC(=O)OC)c2ccc(F)c(Cl)c2)C1 [I*-118a, methyl 2-((R)-(3-chloro-4-fluorophenyl)((R)-1-((S)-1-cyclohexyl-3-(methylamino)propan-2-ylcarbamoyl)piperidin-3-yl)methoxy)ethylcarbamate]
16 | > 8.00 | CNC[C@H](CC1CCCCC1)NC(=O)N1CCC[C@@H]([C@@H](OCCNC(=O)OC)c2cc(F)c(F)c(F)c2)C1 [I*-119a, methyl 2-((R)-((R)-1-((S)-1-cyclohexyl-3-(methylamino)propan-2-ylcarbamoyl)piperidin-3-yl)(3,4,5-trifluorophenyl)methoxy)ethylcarbamate]
17 | > 9.00 | CNC[C@H](CC1CCC(F)(F)CC1)NC(=O)N1CCC[C@@H]([C@@H](OCCNC(=O)OC)c2cccc(F)c2)C1 [I*-120a, methyl 2-((R)—((R)-1-((S)-1-(4,4-difluorocyclohexyl)-3-(methylamino)propan-2-ylcarbamoyl)piperidin-3-yl)(3-fluorophenyl)methoxy)ethylcarbamate]
18 | > 7.70 | CNC[C@H](CC1CCOCC1)NC(=O)N1CCC[C@@H]([C@@H](OCCNC(=O)OC)c2cc(F)cc(Cl)c2)C1 [I*-121a, methyl 2-((R)-(3-chloro-5-fluorophenyl)((R)-1-((S)-1-(methylamino)-3-(tetrahydro-2H-pyran-4-yl)propan-2-ylcarbamoyl)piperidin-3-yl)methoxy)ethylcarbamate]
19 | > 8.00 | COC(=O)NCCO[C@@H](c1cc(F)cc(Cl)c1)[C@@H]1CCCN(C(=O)NC[C@@H](N)C[C@H]2CCCCOC2)C1 [I*-122a, methyl 2-((R)-((R)-1-((S)-2-amino-3-((R)-oxepan-3-yl)propylcarbamoyl)piperidin-3-yl)(3-chloro-5-fluorophenyl)methoxy)ethylcarbamate]
20 | > 8.00 | CNC[C@H](CC12CC3CC(CC1C3)C2)NC(=O)N1CCC[C@@H]([C@@H](OCCNC(=O)OC)c2cccc(F)c2)C1 [I*-123a, methyl 2-((R)-((3R)-1-((S)-1-(3-noradamantyl)-3-(methylamino)propan-2-ylcarbamoyl)piperidin-3-yl)(3-fluorophenyl)methoxy)ethylcarbamate]
21 | > 7.70 | CNC[C@H](C[C@H]1C[C@@H](F)[C@@H](F)C1)NC(=O)N1CCC[C@@H]([C@@H](OCCNC(=O)OC)c2cccc(Cl)c2)C1 [I*-124a, methyl 2-((R)-(3-chlorophenyl)((R)-1-((S)-1-((1r,3S,4R)-3,4-difluorocyclopentyl)-3-(methylamino)propan-2-ylcarbamoyl)piperidin-3-yl)methoxy)ethylcarbamate]
22 | > 8.00 | CNCC(C[C@@H]1C[C@@H](F)[C@@H](F)C1)NC(=O)N1CCC[C@@H]([C@@H](OCCNC(=O)OC)c2cccc(Cl)c2)C1 (stereo partly drawn) [I*-125a, methyl 2-((R)-(3-chlorophenyl)((R)-1-((S)-1-((1s,3R,4S)-3,4-difluorocyclopentyl)-3-(methylamino)propan-2-ylcarbamoyl)piperidin-3-yl)methoxy)ethylcarbamate]
23 | > 7.70 | CNC[C@H](CC1CCCCC1)N/C(=N\C#N)N1CCC[C@@H]([C@@H](OCCNC(=O)OC)c2cccc(Cl)c2)C1 [I*-127a, methyl 2-((R)-(3-chlorophenyl)((R)-1-(N′-cyano-N—((S)-1-cyclohexyl-3-(methylamino)propan-2-yl)carbamimidoyl)piperidin-3-yl)methoxy)ethylcarbamate]
24 | < 7.30 | CNC[C@H](CC1CCCCC1)NC(=O)N1CCC[C@@H]([C@@H](OCCNc2nccs2)c2cccc(Cl)c2)C1 [I*-128a, (R)-3-((R)-(3-chlorophenyl)(2-(thiazol-2-ylamino)ethoxy)methyl)-N-((S)-1-cyclohexyl-3-(methylamino)propan-2-yl)piperidine-1-carboxamide]
25 | < 7.30 | CNCC(CC12CCC(CC1)CC2)NC(=O)N1CCC[C@@H]([C@@H](OCCNC(=O)OC)c2cccc(Cl)c2)C1 (stereo partly drawn) [I*-129a, methyl 2-((R)-((3R)-1-(1-(bicyclo[2.2.2]octan-1-yl)-3-(methylamino)propan-2-ylcarbamoyl)piperidin-3-yl)(3-chlorophenyl)methoxy)ethylcarbamate]

— patent publication US8487108B2, “Piperidinyl carbamate intermediates for the synthesis of aspartic protease inhibitors” (Vitae Pharmaceuticals, Inc., priority 2005, dated 2013)
